Where two headings read alike, the source gives them in different places.
Assays:
[1] = system: U937 cells; test: Curative effects on palpable tumors, U937 cells in scid/scid mice; format: in vivo; details: for tumor growth: daily administration once tumors palpable (4 mm^3)
Procedure: In this series of experiments, effects of various compounds of the present invention on tumor development were tested using two protocols. The first protocol is directed to the testing of curative effects of these compounds in different cell lines. In this protocol, cancerous cells are inoculated to the animals, and the inoculated animals were left without any further treatment until the development of tumors. As soon as the tumors became palable (4 mm^3), the compounds of this invention were administered daily to the animals. Two different cell lines, i.e., U937 and MDA-MB-231 (breast cancer line), were used for this protocol to inoculate scid/scid mice.

[2] = system: U937 cells; test: Antineoplastic activity, U937 cells injected in scid/scid mice, treatment from day 1; format: in vivo; details: 100 mg/kg; six mice
Procedure: Ten million U937 cells were subcutaneously injected into scid/scid mice. One injection was carried out per each of the 6 mice tested per set. The excipient or the compounds tested were administered intraperitoneally on day 1, i.e., the day of U937 cell line inoculation, of the experiment. The excipients or compounds were administered once daily. The tumor sizes were measured on day 5, day 8, day 12, day 14 and day 19 after the injection.

[3] = system: K562, U937, MDA-DB231, BT20 and MCF7 cell lines; test: Cytotoxic effects in multi-well plate, 6 days, ATP level (CellTiter-Glo); details: 2x10^-9 M to 2x10^-4 M
Procedure: In order to test the cytotoxic effects of various compounds, a test was developed in a multi-well plate. Two leukemic cell lines, namely K562 and U937, and three breast cancer cell lines, namely MDA-DB231, BT20 and MCF7 were used for this test.
The cells were seeded at low density and were left for 24 hours to recover and reach a new logarithmic phase of growth. Various concentrations of the compounds being tested, ranging from 2×10^−9 M to 2×10^−4 M, were added in triplicate. The mixture was incubated for 6 days, during which approximately 4 doublings of the cell population occurred, to allow the cells to reach subconfluence.
The viability of the cultured cells after the treatment by the compounds was determined by quantifying the level of ATP since the level of ATP is directly proportional to the number of viable cells present in the culture. The ATP level was quantified by using CellTiter-Glo™ (Promega) luminescent test for cell viability.

[4] = system: blastic cells from AML patients; test: Inhibition of viability of fresh leukemic cells (trypan blue exclusion); format: cell-based, human; details: Homo sapiens, day 3; for cytotoxicity at 10 µM: 10^-5 M; for cytotoxicity at 1 µM: 10^-6 M
Procedure: Samples for AML 1 through 5, AML 1 being the least and AML 5 being the most differentiated, were obtained. […] Cells were incubated with or without […] anti-histamine derivatives. Polaramine was included as a negative control. Cell counts were assessed by trypan blue exclusion test at day 3 after the incubation. Morphological analysis was performed using Wright-Giemsa staining on cytocentrifuge preparations. The results were expressed as % inhibition of growth as compared to negative control.

[5] = system: U937; format: in vivo; details: treatment from day 1, cells inoculated after more than 24 hours, daily administration
Procedure: The second protocol was designed to test the preventive effects of the compounds of this invention on tumorigenesis. In this protocol, the animals have been treated with various compounds of the present invention on day 1. After more than 24 hours, tumoral cells were inoculated. The administration of the compounds of this invention was maintained daily. The cell line used for this test was U937.

[6] = 72 h, MEAN over AML patients, read-out: In Vitro Percent Inhibition of Viability, MEAN
[7] = 72 h, patient ID 3, FAB AML2, read-out: In Vitro Percent Inhibition of Viability
[8] = 72 h, patient ID 4, FAB AML2, read-out: In Vitro Percent Inhibition of Viability
[9] = 72 h, patient ID 5, FAB AML2, read-out: In Vitro Percent Inhibition of Viability
[10] = 72 h, patient ID 10, FAB AML4, read-out: In Vitro Percent Inhibition of Viability
[11] = 72 h, patient ID 11, FAB AML5, read-out: In Vitro Percent Inhibition of Viability
[12] = 72 h, patient ID 12, FAB AML5, read-out: In Vitro Percent Inhibition of Viability
[13] = 72 h, patient ID 13, FAB AML5, read-out: In Vitro Percent Inhibition of Viability
[14] = 72 h, patient ID 14, FAB AML5, read-out: In Vitro Percent Inhibition of Viability
[15] = 72 h, patient ID 15, FAB AML5, read-out: In Vitro Percent Inhibition of Viability
[16] = AML1, 72 h, patient ID 1, FAB AML1, read-out: In Vitro Percent Inhibition of Viability
[17] = AML1, 72 h, patient ID 2, FAB AML1, read-out: In Vitro Percent Inhibition of Viability
[18] = AML3, 72 h, patient ID 6, FAB AML3, read-out: In Vitro Percent Inhibition of Viability
[19] = AML3, 72 h, patient ID 7, FAB AML3, read-out: In Vitro Percent Inhibition of Viability
[20] = AML3, 72 h, patient ID 8, FAB AML3, read-out: In Vitro Percent Inhibition of Viability
[21] = AML3, 72 h, patient ID 9, FAB AML3, read-out: In Vitro Percent Inhibition of Viability

Row | SMILES | cytotoxic effect group [3] | tumor growth [1] | cytotoxicity at 10 µM [4, 6] | cytotoxicity at 1 µM [4, 6] | cytotoxicity at 10 µM [4, 7] | cytotoxicity at 1 µM [4, 7] | cytotoxicity at 10 µM [4, 8] | cytotoxicity at 1 µM [4, 8] | cytotoxicity at 10 µM [4, 9] | cytotoxicity at 1 µM [4, 9] | cytotoxicity at 10 µM [4, 10] | cytotoxicity at 1 µM [4, 10] | cytotoxicity at 10 µM [4, 11] | cytotoxicity at 1 µM [4, 11] | cytotoxicity at 10 µM [4, 12] | cytotoxicity at 10 µM [4, 13] | cytotoxicity at 1 µM [4, 13] | cytotoxicity at 10 µM [4, 14] | cytotoxicity at 1 µM [4, 14] | cytotoxicity at 10 µM [4, 15] | also measured
1 | Nc1ccn([C@@H]2O[C@H](CO)[C@@H](O)[C@@H]2O)c(=O)n1 [ARA-C, cytarabine] | – | – | – | – | – | – | – | – | – | – | – | – | – | – | – | – | – | – | – | – | tumor development ([1]; positive control, treated once tumors palpable): no tumor development; mice that developed a tumor [2]: none of the six
2 | CN(C)CCCN1c2ccccc2Sc2ccc(Cl)cc21 [S59, chlorpromazine] | I | delay in the tumor growth | 37% | 15% | 48% | 7% | 22% | 9% | 37% | 0% | 51% | 33% | 25% | 32% | 51% | 31% | 13% | 40% | 38% | 20% | cytotoxicity at 1 µM [4, 15]: 17%; cytotoxicity at 10 µM [4, 16]: 8%; cytotoxicity at 1 µM [4, 16]: 8%; cytotoxicity at 10 µM [4, 17]: 35%; cytotoxicity at 1 µM [4, 17]: 5%; cytotoxicity at 10 µM [4, 18]: 24%; cytotoxicity at 1 µM [4, 18]: 13%; cytotoxicity at 10 µM [4, 19]: 53%; cytotoxicity at 1 µM [4, 19]: 3%; cytotoxicity at 10 µM [4, 20]: 44%; cytotoxicity at 1 µM [4, 20]: 14%; cytotoxicity at 10 µM [4, 21]: 71%; cytotoxicity at 1 µM [4, 21]: 11%; tumor growth compared to the negative control [5]: decrease in tumor growth
3 | CSc1ccc2c(c1)N(CCC1CCCCN1C)c1ccccc1S2 (stereo not shown) [S60, thioridazine] | I | delay in the tumor growth | 53% | 14% | 91% | 12% | 42% | 19% | 51% | 35% | 48% | 6% | 43% | 39% | 88% | 62% | 15% | 15% | 25% | 27% | cytotoxicity at 1 µM [4, 15]: 0%; cytotoxicity at 10 µM [4, 16]: 42%; cytotoxicity at 1 µM [4, 16]: 8%; cytotoxicity at 10 µM [4, 17]: 13%; cytotoxicity at 1 µM [4, 17]: 8%; cytotoxicity at 10 µM [4, 18]: 89%; cytotoxicity at 1 µM [4, 18]: 13%; cytotoxicity at 10 µM [4, 19]: 95%; cytotoxicity at 1 µM [4, 19]: 12%; cytotoxicity at 10 µM [4, 20]: 56%; cytotoxicity at 1 µM [4, 20]: 0%; cytotoxicity at 10 µM [4, 21]: 38%; cytotoxicity at 1 µM [4, 21]: 0%; tumor growth compared to the negative control [5]: decrease in tumor growth

Reference: US20040072824A1, “Methods and compositions for the treatment of cancer” (priority 2001, published 2004)
